Measured values: patent publication US11008346B2, “Beta-lactamase inhibitors” (priority 2014, dated 2021)
Like-named read-outs stand apart in the source and are kept apart here.

Columns and labels:
SHV-5 β-lactamase = target: T1, SHV-5 β-lactamase (Klebsiella pneumoniae, UniProt P0A3M1); experiment: β-lactamase enzyme inhibition, SHV-5; assay type: biochemical
T1 construct: made in house; host or cells: E. coli BL21(DE3)
Outline: (§1)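 Native untagged enzymes expressed in E. coli BL21(DE3) and purified by cation exchange and gel filtration were preincubated with inhibitor for 15 min at 37° C. Hydrolysis was followed for 10 min: nitrocefin (100 μM final, 486 nm) for OXA-1 and p99 AmpC, imipenem (300 nm) for KPC-2, cefotaxime (260 nm) for SHV-5; IC50 from initial rates.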

KPC-2 β-lactamase = target: T2, KPC-2 β-lactamase (Klebsiella pneumoniae, UniProt Q9F663); experiment: β-lactamase enzyme inhibition, KPC-2; assay type: biochemical
T2 construct: made in house; host or cells: E. coli BL21(DE3)
Outline: as §1

[1] = target: T3, VIM-2 metallo β-lactamase (Pseudomonas aeruginosa, UniProt Q9K2N0); experiment: β-lactamase enzyme inhibition, VIM-2; assay type: biochemical; conditions: Nitrocefin 100 μM, 486 nm; 15 min at 37° C. preincubation; read-out: IC50 VIM-2 (Class B)
T3 construct: made in house; host or cells: E. coli BL21(DE3)
Outline: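 VIM-2 purified by Q sepharose anion exchange (50 mM Hepes pH 7.5, 0-600 mM NaCl gradient, two runs, >90% purity). Enzyme preincubated with inhibitor 15 min at 37° C; nitrocefin 100 μM final, absorbance at 486 nm followed 10 min. IC50 from initial hydrolysis rates versus inhibitor-free controls.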

p99 AmpC β-lactamase = target: T4, p99 AmpC β-lactamase (Enterobacter cloacae, UniProt P05364); experiment: β-lactamase enzyme inhibition, p99 AmpC; assay type: biochemical
T4 construct: made in house; host or cells: E. coli BL21(DE3)
Outline: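 Native untagged E. cloacae p99 AmpC was expressed in E. coli BL21(DE3) and purified by cation exchange and gel filtration. Enzyme was preincubated with inhibitor at 37°C for 15 min.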

OXA-1 β-lactamase = target: T5, OXA-1 β-lactamase (Escherichia coli, UniProt P13661); experiment: β-lactamase enzyme inhibition, OXA-1; assay type: biochemical; conditions: Nitrocefin 100 μM, 486 nm; 15 min at 37° C. preincubation; read-out: IC50 OXA-1 (Class D)
T5 construct: made in house; host or cells: E. coli BL21(DE3)
Outline: as §1

[2] = test system: E. coli ESBL4 expressing CTX-M-15; experiment: broth microdilution MIC, E. coli CTX-M-15; assay type: cell-based; conditions: Fixed CAZ (ceftazidime) 4 μg/mL
Outline: (§2)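 Potentiation MICs were run by CLSI broth microdilution in cation-adjusted Mueller Hinton broth, with test compound serially diluted 2-fold from 32 to 0.25 μg/mL against a fixed 4 μg/mL beta-lactam overlay. Plates were incubated 16-20 hours at 37° C and the MIC was read visually.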

[3] = test system: E. cloacae 144200 expressing Class C P99 AmpC; experiment: broth microdilution MIC, E. cloacae P99; assay type: cell-based; conditions: Fixed CAZ (ceftazidime) 4 μg/mL
Outline: as §2

[4] = test system: K. pneumoniae 156319 expressing KPC-3; experiment: broth microdilution MIC, K. pneumoniae KPC-3; assay type: cell-based; conditions: Fixed Mero (meropenem) 4 μg/mL
Outline: as §2

[5] = test system: P. aeruginosa Ps296 expressing VIM-2; experiment: broth microdilution MIC, P. aeruginosa VIM-2; assay type: cell-based; conditions: Fixed Mero (meropenem) 4 μg/mL
Outline: as §2

[6] = test system: K. pneumoniae A-1797 expressing KPC-2 and VIM-4; experiment: broth microdilution MIC, K. pneumoniae KPC-2 and VIM-4; assay type: cell-based; conditions: Fixed Mero (meropenem) 4 μg/mL
Outline: as §2

[7] = test system: S. aureus MSSA-7 producing penicillinase PC-1; experiment: broth microdilution MIC, S. aureus PC-1; assay type: cell-based; conditions: Fixed Pip (piperacillin) 4 μg/mL
Outline: as §2

[8] = imipenem substrate, 300 nm, 15 min at 37° C. preincubation, read-out: IC50 KPC-2 (Class A)

T1 sequence (P0A3M1 22-286): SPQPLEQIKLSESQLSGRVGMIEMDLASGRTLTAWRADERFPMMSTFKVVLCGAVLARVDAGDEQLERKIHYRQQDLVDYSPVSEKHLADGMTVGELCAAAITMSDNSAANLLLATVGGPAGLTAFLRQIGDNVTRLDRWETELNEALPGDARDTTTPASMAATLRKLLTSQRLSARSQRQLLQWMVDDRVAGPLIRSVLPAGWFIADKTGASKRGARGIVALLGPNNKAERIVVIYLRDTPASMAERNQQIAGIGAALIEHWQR
T5 sequence (P13661 26-276): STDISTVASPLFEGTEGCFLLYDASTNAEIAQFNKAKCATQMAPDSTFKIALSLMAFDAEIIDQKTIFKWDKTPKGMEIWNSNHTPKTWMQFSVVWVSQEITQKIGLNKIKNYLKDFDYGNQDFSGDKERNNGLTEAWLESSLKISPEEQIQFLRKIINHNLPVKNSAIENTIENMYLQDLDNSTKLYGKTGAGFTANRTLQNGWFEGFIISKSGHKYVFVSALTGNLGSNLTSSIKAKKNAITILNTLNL
T2 sequence (Q9F663 25-293, looked up): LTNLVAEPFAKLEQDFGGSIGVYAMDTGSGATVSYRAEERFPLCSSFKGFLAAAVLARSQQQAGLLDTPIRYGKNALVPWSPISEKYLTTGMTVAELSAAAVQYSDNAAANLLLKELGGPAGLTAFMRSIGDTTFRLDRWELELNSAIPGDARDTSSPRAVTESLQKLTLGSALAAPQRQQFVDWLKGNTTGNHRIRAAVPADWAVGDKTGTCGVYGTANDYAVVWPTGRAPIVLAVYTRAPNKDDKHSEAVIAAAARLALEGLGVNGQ
T4 sequence (P05364 21-381): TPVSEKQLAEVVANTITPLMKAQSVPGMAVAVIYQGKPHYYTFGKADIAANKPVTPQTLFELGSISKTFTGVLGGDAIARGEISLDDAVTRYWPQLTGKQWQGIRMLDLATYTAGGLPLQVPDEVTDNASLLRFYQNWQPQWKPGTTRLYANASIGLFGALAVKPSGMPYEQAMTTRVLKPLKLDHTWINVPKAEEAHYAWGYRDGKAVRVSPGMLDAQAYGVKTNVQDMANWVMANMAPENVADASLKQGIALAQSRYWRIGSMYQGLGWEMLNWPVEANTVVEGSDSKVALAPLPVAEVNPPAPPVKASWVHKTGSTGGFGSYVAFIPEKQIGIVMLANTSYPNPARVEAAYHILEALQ

Structure (SMILES)	IC50 (SHV-5 β-lactamase)	IC50 (KPC-2 β-lactamase; [8])	IC50 [1]	IC50 (p99 AmpC β-lactamase)	IC50 (OXA-1 β-lactamase)	MIC of exemplary compounds in presence of fixed β-lactams, E. coli ESBL4 CTX-M-15 [2]	MIC of exemplary compounds in presence of fixed β-lactams, E. cl. 144200 p99 AmpC [3]	MIC of exemplary compounds in presence of fixed β-lactams, K.P. 156319 KPC-3 [4]	MIC of exemplary compounds in presence of fixed β-lactams, P. aerug. Ps296 VIM-2 [5]	MIC of exemplary compounds in presence of fixed β-lactams, K.P. A-1797 KPC-2 VIM-4 [6]	MIC of exemplary compounds in presence of fixed β-lactams, S. aureus MSSA-7 PC-1 [7]	IC50 (KPC-2 β-lactamase)
CNC(=O)CCC(=O)N[C@H]1Cc2cccc(C(=O)O)c2OB1O [Example 19, (R)-2-Hydroxy-3-(3-methylcarbamoyl-propionylamino)-3,4-dihydro-2H-benzo[e][1,2]oxaborinine-8-carboxylic acid]	< 100 nM	< 100 nM	1000 to 10000 nM	< 100 nM	< 100 nM	C (C represents the MIC in the presence of ≤4 g/mL of a β-lactamase inhibitor)	C (C represents the MIC in the presence of ≤4 g/mL of a β-lactamase inhibitor)	C (C represents the MIC in the presence of ≤4 g/mL of a β-lactamase inhibitor)	A (A represents an MIC of the fixed β-lactam antibiotic in the presence of >32 g/mL of a β-lactamase inhibitor)	B (B represents the MIC in the presence of between 8 and 32 g/mL of a β-lactamase inhibitor)	B (B represents the MIC in the presence of between 8 and 32 g/mL of a β-lactamase inhibitor)	
N#CCCCC(=O)N[C@H]1Cc2cccc(C(=O)O)c2OB1O [Example 14, (R)-3-(4-Cyano-butyrylamino)-2-hydroxy-3,4-dihydro-2H-benzo[e][1,2]oxaborinine-8-carboxylic acid]	< 100 nM	< 100 nM	1000 to 10000 nM	< 100 nM	< 100 nM	C (C represents the MIC in the presence of ≤4 g/mL of a β-lactamase inhibitor)	C (C represents the MIC in the presence of ≤4 g/mL of a β-lactamase inhibitor)	C (C represents the MIC in the presence of ≤4 g/mL of a β-lactamase inhibitor)	C (C represents the MIC in the presence of ≤4 g/mL of a β-lactamase inhibitor)	B (B represents the MIC in the presence of between 8 and 32 g/mL of a β-lactamase inhibitor)	C (C represents the MIC in the presence of ≤4 g/mL of a β-lactamase inhibitor)	
CC(=O)CCC(=O)N[C@H]1Cc2cccc(C(=O)O)c2OB1O [Example 10, (R)-2-Hydroxy-3-(4-oxo-pentanoylamino)-3,4-dihydro-2H-benzo[e][1,2]oxaborinine-8-carboxylic acid]	< 100 nM		100 to 1000 nM	< 100 nM	< 100 nM	C (C represents the MIC in the presence of ≤4 g/mL of a β-lactamase inhibitor)	C (C represents the MIC in the presence of ≤4 g/mL of a β-lactamase inhibitor)	C (C represents the MIC in the presence of ≤4 g/mL of a β-lactamase inhibitor)	C (C represents the MIC in the presence of ≤4 g/mL of a β-lactamase inhibitor)	C (C represents the MIC in the presence of ≤4 g/mL of a β-lactamase inhibitor)	C (C represents the MIC in the presence of ≤4 g/mL of a β-lactamase inhibitor)	100 to 1000 nM
O=C(CCc1nccs1)N[C@H]1Cc2cccc(C(=O)O)c2OB1O [Example 31, (R)-2-hydroxy-3-(3-(thiazol-2-yl)propanamido)-3,4-dihydro-2H-benzo[e][1,2]oxaborinine-8-carboxylic acid]	< 100 nM	< 100 nM	1000 to 10000 nM	< 100 nM	< 100 nM	C (C represents the MIC in the presence of ≤4 g/mL of a β-lactamase inhibitor)	C (C represents the MIC in the presence of ≤4 g/mL of a β-lactamase inhibitor)	C (C represents the MIC in the presence of ≤4 g/mL of a β-lactamase inhibitor)	C (C represents the MIC in the presence of ≤4 g/mL of a β-lactamase inhibitor)	B (B represents the MIC in the presence of between 8 and 32 g/mL of a β-lactamase inhibitor)	C (C represents the MIC in the presence of ≤4 g/mL of a β-lactamase inhibitor)	
O=C(CN1CCCC1=O)N[C@H]1Cc2cccc(C(=O)O)c2OB1O [Example 33, (R)-2-Hydroxy-3-[2-(2-oxo-pyrrolidin-1-yl)-acetylamino]-3,4-dihydro-2H-benzo[e][1,2]oxaborinine-8-carboxylic acid]	< 100 nM	< 100 nM	1000 to 10000 nM	< 100 nM	< 100 nM	C (C represents the MIC in the presence of ≤4 g/mL of a β-lactamase inhibitor)	C (C represents the MIC in the presence of ≤4 g/mL of a β-lactamase inhibitor)	C (C represents the MIC in the presence of ≤4 g/mL of a β-lactamase inhibitor)	C (C represents the MIC in the presence of ≤4 g/mL of a β-lactamase inhibitor)	C (C represents the MIC in the presence of ≤4 g/mL of a β-lactamase inhibitor)	C (C represents the MIC in the presence of ≤4 g/mL of a β-lactamase inhibitor)	
O=C(CCN1C(=O)CCC1=O)N[C@H]1Cc2cccc(C(=O)O)c2OB1O [Example 34, (R)-3-[3-(2,5-Dioxo-pyrrolidin-1-yl)-propionylamino]-2-hydroxy-3,4-dihydro-2H-benzo[e][1,2]oxaborinine-8-carboxylicacid]	< 100 nM	< 100 nM	1000 to 10000 nM	< 100 nM	< 100 nM	C (C represents the MIC in the presence of ≤4 g/mL of a β-lactamase inhibitor)	C (C represents the MIC in the presence of ≤4 g/mL of a β-lactamase inhibitor)	B (B represents the MIC in the presence of between 8 and 32 g/mL of a β-lactamase inhibitor)	B (B represents the MIC in the presence of between 8 and 32 g/mL of a β-lactamase inhibitor)	B (B represents the MIC in the presence of between 8 and 32 g/mL of a β-lactamase inhibitor)	C (C represents the MIC in the presence of ≤4 g/mL of a β-lactamase inhibitor)	
